The text below walks through data of patent publication US20250040542A1, “USE OF PHENYLPHENALENONES AS A SELECTIVE HERBICIDE” (UNIVERSITE DE LIMOGES, priority 2021, published 2025).

In one data set the test system is Onion (Allium cepa). Briefly: Greenhouse foliar spraying on plant of interest. In kind it is in vivo. As to conditions: 6 treatments spaced 48 hours apart, C1 50 μM, C2 75 μM, C3 100 μM, harvest 7 weeks after germination. The method, then:
(§1) A 5 mM stock solution was prepared in 50% v/v ethanol (96°). Next, the solution was further diluted in distilled water to obtain 10 μM for in vitro testing and 50 μM, 75 μM and 100 μM for greenhouse testing. 0.1% v/v of the surfactant IGEPAL-Co 630 was added to the solution in order to obtain a product ready for spraying on seedlings in the greenhouse.
(§2) The different seeds are grown in a greenhouse in commercial potting soil (Terreau Universel, Fertiligene). The seeds were sown in the greenhouse under controlled temperature and humidity conditions (the temperature varies between 15° C. and 30° C. depending on the season, and the relative humidity varies from 50 to 70%). 6 isolated treatments (approximately 10 sprays each) spaced 48 hours apart were carried out one week after germination.
(§3) After 7 weeks, the seedlings were harvested. The roots and aboveground parts were separated and the roots were washed with distilled water and dried on absorbent paper. These materials were then stored at −20° C.
(§4) Tests in a greenhouse were carried out. All plants were exposed to 6 treatments with 3 increasing doses spaced 48 hours apart: C1 (50 μM or 13.6 mg/l), C2 (75 μM or 20.4 mg/l), C3 (100 μM or 27.2 mg/l). Harvesting was conducted 7 weeks after germination.

The subject of the next data set is Wheat (Triticum sativum). The experiment in a line: Greenhouse foliar spraying on plant of interest. It counts as in vivo. As to conditions: 6 treatments spaced 48 hours apart, C1 50 μM, C2 75 μM, C3 100 μM, harvest 7 weeks after germination. Here is the method: as §1, §2, §3, §4
Another data set relates to Corn (Zea mays). Briefly: Greenhouse foliar spraying on plant of interest. In kind it is in vivo. The following applies: 6 treatments spaced 48 hours apart, C1 50 μM, C2 75 μM, C3 100 μM, harvest 7 weeks after germination. The method, then: as §1, §2, §3, §4
The test system of data set [1] is Sunflower (Helianthus annuus). Briefly: Greenhouse foliar spraying on plant of interest. It counts as in vivo. The following applies: 6 treatments spaced 48 hours apart. Here is the method: as §1, §2, §3, §4
Another data set concerns Turnip (Brassica napa). Briefly: Greenhouse foliar spraying on plant of interest. It counts as in vivo. As to conditions: 6 treatments spaced 48 hours apart, C1 50 μM, C2 75 μM, C3 100 μM, harvest 7 weeks after germination. Here is the method: as §1, §2, §3, §4
Data set [2] concerns Spinach (Spinacia oleracea). Briefly: Greenhouse foliar spraying on plant of interest. It counts as in vivo. The following applies: 6 treatments spaced 48 hours apart, C1 50 μM, C2 75 μM, C3 100 μM, harvest 7 weeks after germination. The method, then:
as §1, §2, §3, §4

The nature of data set [3]: Photodegradation test, exposed to sunlight. In kind it is physicochemical. As to conditions: 100 μM in distilled water. Here is the method: A photodegradation test was conducted on 100 μM anigorufone exposed to sunlight. An anigorufone solution was prepared at the studied dose (100 μM) from a stock solution in 50 ml of distilled water in glass flasks. The flasks were placed outside and exposed to full sunlight. The experiment was carried out three times in June 2022 under light conditions corresponding to sunny/partially clear skies. 1 ml of the solution was run through UV-Vis spectrometry and photodegradation was tracked by the decrease in absorbance at 370 nm. […]

Another data set relates to Fishing worms (maggots). Briefly: Toxicity test on fishing worms (maggots). It counts as in vivo. The method, then: Fishing worms (maggots) were spray treated with 100 μM (27.2 mg/L) anigorufone. 30 fishing worms were cultured per petri dish and 10 sprays were performed per dish. The fishing worms were cultured under photoperiod conditions (16 h light/8 h dark); 8000 Lux; 22° C.). The experiment was conducted three times. […]

Data set [4] has as its system Tomato Lycopersicon esculentum var Marmande. The experiment in a line: Greenhouse foliar spraying on plant of interest. It counts as in vivo. Here is the method: as §1, §2, §3
(§5) The formulation in which the active ingredient is 50 μM Anigorufone was tested on a barley+poppy system and on tomato plants, with two treatments spaced 48 hours apart.
as §4

For another data set, the system named is Poppy (Papaver rhoeas). The experiment in a line: Greenhouse foliar spraying on weed. Set-up: key to Resistance (degree of resistance of the weed to the treatments): least resistant +; most resistant ++++++++. It counts as in vivo. Here is the method: as §1, §2, §3, §5
Tests in a greenhouse were carried out. All plants were exposed to 6 treatments with 3 increasing doses spaced 48 hours apart: C1 (50 μM or 13.6 mg/l), C2 (75 μM or 20.4 mg/l), C3 (100 μM or 27.2 mg/l). […]

Data set [5] concerns Dandelion (Taraxacum officinale). Briefly: Greenhouse foliar spraying on weed. It counts as in vivo. Set-up: key: least resistant +; most resistant ++++++++. The following applies: 6 treatments spaced 48 hours apart, C1 50 μM, C2 75 μM, C3 100 μM, harvest 7 weeks after germination; ranking among 8 weeds. Here is the method: as §1, §2, §3, §4

The structures appear in SMILES notation.

`O=C1C(O)=Cc2cccc3ccc(-c4ccccc4)c1c23` [Anigorufone, 2-hydroxy-9-phenylphenalenone]: in the data set with Onion (Allium cepa), the effect on onion result is “no effect”. Besides, in the data set with Wheat (Triticum sativum), the effect on wheat result is “no effect”. The effect on corn entry in the data set with Corn (Zea mays) is on record as “no effect”. Also, in data set [1] (C1 50 μM, C2 75 μM, C3 100 μM, harvest 7 weeks after germination), the effect on sunflower entry is “no effect”. Further, in data set [1] (treated with C1 (50 μM) and C2 (75 μM)), the flowering of sunflowers result is recorded as “flowering induction”. In the data set on Turnip (Brassica napa), the effect on turnip entry is recorded as “no effect”. Further, the effect on spinach entry in data set [2] is reported as “no effect”. For the same compound, the photodegradation entry in data set [3] (after 2 weeks) is “degraded almost completely”. Moreover, the persistent molecules in data set [3] (after 72 hours, absorbance at 370 nm) is on record as 30-40%. For the same compound, the “viability rate of the maggots compared to the control conditions” value in the data set on Fishing worms (maggots) (spray treated with 100 μM (27.2 mg/L), 10 sprays per dish, 30 worms per dish) is recorded as “remains constant”. Further, the “effects on fishing worms” value in the data set with Fishing worms (maggots) (tested at 100 μM (27.2 mg/L), spray) was “no effects”. In [4] (50 μM, two treatments spaced 48 hours apart, foliar spraying), the “growth of tomatoes compared to the control lot” value is on record as “does not affect their growth”. In data set [4] (50 μM, two treatments, two months after treatment, compared to untreated plants), the “growth of tomato plants two months after treatment” value is given as “normal growth”. For the same compound, the effect on tomato result in data set [4] (6 treatments spaced 48 hours apart, C1 50 μM, C2 75 μM, C3 100 μM, harvest 7 weeks after germination) is “no effect”. In addition, in the data set with Poppy (Papaver rhoeas) (50 μM, two treatments spaced 48 hours apart, foliar spraying, 17-day-old seedlings, barley+poppy system), the “herbicidal effect on poppy” value is listed as “dead”. Moreover, the “Resistance (degree of resistance of the weed to the treatments)” value in the data set on Poppy (Papaver rhoeas) (6 treatments spaced 48 hours apart, C1 50 μM, C2 75 μM, C3 100 μM, harvest 7 weeks after germination, ranking among 8 weeds) is given as “+”; in [5], “++++++++”.
